From US7790727B2, “Benzenesulfonanilide compounds suitable for treating disorders that respond to modulation of the serotonin 5-HT6 receptor” (Abbott GmbH & Co. KG, priority 2007, dated 2010)
pKd, pKi: −log10 of the molar value. Counter-ions that a name gives are not always drawn. Like-named read-outs stand apart in the source and are kept apart here. One block for each molecule: values may come before it.

How the values were obtained:
dopamine D2 receptor = target: T1, dopamine D2 receptor (Homo sapiens, UniProt P14416); assay: Dopamine D2 receptor binding assay (displacement of [125I]-iodospiperone); settings: dopamine D2 receptor membranes, HEK293; read-out: KD of radioligand (saturation binding experiments)
T1 construct: expressed in transfected cells
T1 sequence (P14416 whole entry): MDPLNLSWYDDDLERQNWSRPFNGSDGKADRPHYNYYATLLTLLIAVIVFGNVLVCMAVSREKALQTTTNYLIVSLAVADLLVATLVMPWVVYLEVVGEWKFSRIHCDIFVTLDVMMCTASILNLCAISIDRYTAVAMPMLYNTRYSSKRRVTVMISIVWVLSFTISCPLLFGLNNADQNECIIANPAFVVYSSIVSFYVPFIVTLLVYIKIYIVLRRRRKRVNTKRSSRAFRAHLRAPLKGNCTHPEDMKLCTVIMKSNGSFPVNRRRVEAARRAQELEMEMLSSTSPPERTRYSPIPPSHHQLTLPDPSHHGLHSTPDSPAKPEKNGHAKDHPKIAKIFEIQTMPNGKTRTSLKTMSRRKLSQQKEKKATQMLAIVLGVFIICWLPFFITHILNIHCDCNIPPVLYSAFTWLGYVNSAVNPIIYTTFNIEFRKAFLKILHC
Protocol: (§1) 1. Preparation of Membranes by Ultrasonic Treatment and Differential Centrifugation
The pellets were stored at −80° C. until use. […] (Beckman Ultrazentrifuge XL 80).
(§2) 2. Receptor Binding Experiments
a) Dopamine D2 Receptor Binding Assay
Non-specific binding was defined with 1 μM haloperidol.

h-5-HT6 receptor = target: T2, h-5-HT6 receptor (Homo sapiens, UniProt P50406); assay: 5-HT6 receptor binding assay (displacement of [3H]-LSD)
T2 construct: expressed in transfected cells
T2 sequence (P50406 whole entry): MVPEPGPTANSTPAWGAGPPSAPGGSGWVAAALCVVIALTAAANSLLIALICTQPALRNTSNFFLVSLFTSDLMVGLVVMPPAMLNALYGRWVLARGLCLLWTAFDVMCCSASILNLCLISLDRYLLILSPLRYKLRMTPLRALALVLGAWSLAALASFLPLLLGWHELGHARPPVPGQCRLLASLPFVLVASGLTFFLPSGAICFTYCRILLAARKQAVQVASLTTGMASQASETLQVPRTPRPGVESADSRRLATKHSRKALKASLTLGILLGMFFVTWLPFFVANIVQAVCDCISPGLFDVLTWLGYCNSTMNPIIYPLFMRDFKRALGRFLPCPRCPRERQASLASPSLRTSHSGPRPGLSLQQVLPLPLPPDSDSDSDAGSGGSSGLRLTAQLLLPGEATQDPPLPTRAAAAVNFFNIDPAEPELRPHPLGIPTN
Protocol: Displacement of radioligands binding to the following cloned human receptors
as §1
Cells from stable clonal cell lines expressing the corresponding receptor (5-HT6, α1-adrenergic, dopamine D2 or histamine H1 receptors) were washed with PBS (w/o Ca^++, Mg^++) and harvested in PBS with 0.02% EDTA. The cells were collected by centrifugation at 500 g for 10 min. at 4° C., washed with PBS and centrifuged (500 g, 10 min. 4° C.). The pellets were stored at −80° C. until use. F or membrane preparation, the thawed cell pellet was resuspended in ice-cold sucrose buffer (0.25 M sucrose, 10 mM Hepes (pH 7.4), 1 mM Phenylmethylsulfonyl fluoride (PMSF) in DMSO, 5 μg/ml Pepstatin-A, 3 mM EDTA, 0.025% Bacitracin) and homogenized with a Branson Sonifier W-250 (Settings: Timer 4; Output Control 3; Duty Cycle constant; 2 to 3 cycles). Cell disruption was checked with the aid of a microscope. Remaining unbroken cells were pelleted at 1.000 g for 10 min. at 4° C. The sucrose buffer supernatant was then centrifuged at 60.000 g for 1 h at 4° C. (Beckman Ultrazentrifuge XL 80). The pellet was resuspended in 30 ml ice-cold Tris buffer (20 mM TRIS (pH 7.4), 5 μg/ml Pepstatin A, 0.1 mM PMSF, 3 mM EDTA) by pipetting through a 10 ml serological pipet and centrifuged for 1 h at 4° C. at 60.000 g. A final resuspension was performed in a small volume of ice-cold Tris buffer (see above) by pressing through a serological pipet followed by ultrasonic treatment with a Branson Sonifier W-250 (Settings: Timer 1; Output Control 3; Duty Cycle constant; 1 cycle). Protein concentration was determined (BCA-Kit; Pierce) and aliquots stored at −80° C. or in liquid nitrogen for long-term storage.
as §2
All receptor binding experiments were carried out in the corresponding assay buffer in a total volume of 200 μl in the presence of various concentrations of test compound (10^−5 M to 10^−9 M, tenfold serial dilution, duplicate determinations). The assays were terminated by filtration on polyethylenimine (PEI 0.1% or 0.3%) presoaked Packard Unifilter Plates (GF/C or GF/B) with a Tomtec Machill U 96 well-plate harvester. After the plates had been dried for 2 h at 55° C. in a drying chamber scin tillation cocktail (BetaPlate Scint; PerkinElmer) was added. Radioactivity was measured in a Microbeta Trilux two hours after the addition of the scintillation mixture. Data derived from liquid scintillation counting were analysed by iterative non-linear regression analysis with the use of the Statistical Analysis System (SAS): a program similar to “LIGAND” as described by Munson and Rodbard (Analytical Biochemistry 107, 220-239 (1980).
a) 5-HT6 Receptor Binding Assay
HEK293 cells stably expressing the h-5-HT6 receptor (NCBI Reference Sequence XM 001435) were cultured in RPMI1640 medium supplemented with 25 mM HEPES, 10% fetal calf serum and 1-2 mM glutamine. The membrane preparation was performed as described in section 1. […] Non-specific binding was defined with 1 μM methiothepin. The binding reaction was carried out for 3.5 h at room temperature. During the incubation, the plates were shaken on a plate shaker at 100 rpm and terminated by filtration on Packard Unifilter GF/C (0.1% PEI) plates, followed by 2 wash cycles with ice-cold 50 mM Tris-HCl, 5 mM CaCl2.
Data derived from liquid scintillation counting were analyzed by iterative non-linear regression analysis with the use of the Statistical Analysis System (SAS): a program similar to “LIGAND” as described by Munson and Rodbard (Anal. Biochem. 1980, 107, 220-239). Fitting was performed according to formulae described by Feldman (Anal. Biochem. 1972, 48, 317-338). IC50, nH and Ki values were expressed as geometrical mean.

pKd (dopamine D2 receptor): 9.66
Molecule: iodospiperone [[^125I]-iodospiperone]

pKi (h-5-HT6 receptor; membranes of HEK293 cells expressing h-5-HT6 receptor, 1 nM [3H]-LSD, read-out: Ki(5HT6)): > 8.00
Molecule: COc1ccc(NS(=O)(=O)c2ccccc2OC(F)F)cc1N1CCNCC1 [Example 14, 2-Difluoromethoxy-N-(4-methoxy-3-piperazin-1-yl-phenyl)-benzenesulfonamide Trifluoroacetate]

Molecule: O=S(=O)(Nc1cccc(N2CCNCC2)c1)c1ccccc1OC(F)F [Example 30, 2-Difluoromethoxy-N-(3-piperazin-1-yl-phenyl)-benzenesulfonamide Trifluoroacetate]
pKi (h-5-HT6 receptor): > 8.00
